Results on two compounds are retold here after patent US9265744B2, “Fulvic acid and antibiotic combination for the inhibition or treatment of multi-drug resistant bacteria” (NATRACINE UK LIMITED, priority 2012, dated 2016).

The test system of this experiment is Klebsiella pneumoniae (ATCC BAA2146 NDM-1+). In words: Neutropenic mouse thigh model of K. pneumoniae infection. In kind it is in vivo, mouse (CD1). The following applies: IV 2X daily; for Group Ave. Log 10 cfu/g / Group Average (cfu/g), thigh tissue burden / Log reduction from vehicle: 24 h post infection; for No. Sterilised (5 or less colonies detected on neat plate): n = 12 thighs. The text has this:
Mice used in this study were supplied by Charles River UK and were specific pathogen free. The strain of mouse used was CD1, which is a well characterized outbred strain. Mice were 16-18 g on receipt at Euprotec's facility and were allowed to acclimatize for 7 days (target weight at the start of the experiment 22-25 g).
Klebsiella pneumoniae (ATCC BAA2146 NDM-1^+ (blandm) was used throughout the study.
In this study, 6 mice were used in each treatment group. • b) Immunosuppression
Mice were rendered temporarily neutropenic by immunosuppression with cyclophosphamide at 150 mg/kg four days before infection and 100 mg/kg one day before infection by intraperitoneal injection. The immunosuppression regime leads to neutropenia starting 24 hours post administration which continues throughout the study. • c) Infection
Antibacterial treatment was initiated 2 hours post infection (Table 3) and was administered twice (exactly 12 hours apart). An aliquot of 4% CHD-FA stock solution as adjusted to pH 5 with 10 M sodium hydroxide solution then diluted either 1:2 or 1:8 with 0.9% saline to give a dosing solution of 2% (200 mg/kg) and 0.5% (50 mg/kg) CHD-FA respectively.
Colistin was diluted in 0.9% saline to give a dosing solution of 4 mg/ml (40 mg/kg). Meropenem was diluted in 0.9% saline to give a dosing solution of 3 mg/ml (30 mg/kg). The vehicle was 0.9% saline. Following reconstitution, the suspensions were vortexed to ensure complete dissolution.
CHD-FA was administered by gavage, whereas Colistin, Meropenem and the vehicle were administered IV at 10 ml/kg (requiring individual mice to be administered ˜0.25 ml/dose). • e) Endpoints
24 hours post infection, the clinical condition of all animals was assessed prior to them being humanely euthanized. Animal weight was determined before both thighs were removed and weighed individually. Individual thigh tissue samples were homogenized in ice cold sterile phosphate buffered saline. Thigh homogenates were then quantitatively cultured on to CLED agar and incubated at 37° C. for 24 hrs and colonies counted daily. • f) Statistical Analysis
Quantitative thigh tissue burden data for CHD-FA were analysed using the statistical test Kruskal Wallis test (corrected for multiple comparisons) and compared to Colistin, Meropenem and vehicle monotherapy, plus Colistin/CHD-FA and Meropenem/CHD-FA combinations.

Turning to `C[C@@H](O)[C@H]1C(=O)N2C(C(=O)O)=C(S[C@@H]3CN[C@H](C(=O)N(C)C)C3)[C@H](C)[C@H]12` [Meropenem], where the note is “Meropenem 30 mg/kg”, the “Group Ave. Log 10 cfu/g” value stood at 9.67 Log 10 cfu/g; the “Group Average (cfu/g), thigh tissue burden” value was determined as 4729505542 cfu/g; the “Log reduction from vehicle” value is on record as 1.74 log 10; the “No. Sterilised (5 or less colonies detected on neat plate)” value is given as 0.

In the case of Colistin, where the note is “Colistin 40 mg/kg”, the “Group Ave. Log 10 cfu/g” value is listed as 9.14 Log 10 cfu/g; the “Group Average (cfu/g), thigh tissue burden” value was determined as 1388363808 cfu/g; the “Log reduction from vehicle” value is reported as 2.27 log 10; the “No. Sterilised (5 or less colonies detected on neat plate)” value is listed as 0.
